Reference: US20140171438A1, “Hybrid Compounds And Methods Of Making And Using The Same” (CELLCEUTIX CORPORATION, priority 2012, published 2014)
In brackets after ≈: the same amount, converted by molar mass. Where two headings read alike, the source gives them in different places.

Experiments:
Assay type in all cases: cell-based
[1] = Cytotoxicity, colorimetric tetrazolium assay; settings: one hour with compound in serum-free media
Experimental: Cytotoxicity of the compounds was evaluated in a colorimetric assay using a transformed human liver cell line (HepG2, HB-8065) and an embryonic mouse cell line (NIH/3T3 cells, CRL-1658). This assay measures the bioreduction of a novel tetrazolium compound to a soluble formazan product by viable cells. HepG2 cells were seeded in 96 well plates at 2×10^4 cells/well in MEM medium with 10% fetal bovine serum (FBS) for 24 hours prior to use. NIH/3T3 cells were seeded in 96 well plates at 2×10^4 cells/well in DMEM medium with 10% bovine calf serum (BCS) 24 hours prior to use. Cell monolayers were rinsed in serum-free media and incubated for one hour with the compound in serum-free media. After incubation, the media was replaced with serum supplemented media and live cells were measured using the Cell Titer 96 Aqueous […] (Promega, Madison, Wis.). EC50 values were determined using a four parameter logistic equation: Y=Bottom+(Top−Bottom)/(1+10̂((Log EC50−X)*HillSlope)). Actual results from a representative cytotoxicity assay are shown below in Table 2. Data is expressed as EC50 in μg/mL.

[2] = system: Klebsiella pneumoniae ATCC 13883; test: Antimicrobial activity, MIC, modified microbroth dilution; settings: read-out: MIC (expressed as MIC50) K. Pnuemnoiae
Experimental: (§1) The compounds were screened for antimicrobial activity against a number of ATCC bacterial strains. Minimum Inhibitory Concentrations (MIC) of each of the compounds were determined using standard CLSI procedures modified by Hancock protocol against E. Coli ATCC 25922, Staphylococcus aureus ATCC 27660, Enterococcus faecalis ATCC 29212, Pseudomonas aeruginosa ATCC 10145, and Klebsiella pneumoniae ATCC 13883.
(§2) This procedure is a modification of the standard microbroth dilution assay recommended by the National Committee for Clinical Laboratory Standards (NCCLS) which has been developed for determining in vitro antimicrobial activities of cationic agents (Steinberg et al., Antimicrob. Agents Chemother., 1997, 41, 1738; and Yan et al., Antimicrob. Agents Chemother., 2001, 45, 1558). The modifications were made to minimize loss of the antimicrobial agent due to adsorption onto glass or plastic surfaces and by precipitation at high concentrations.
(§3) Three mL of Mueller-Hinton II Broth (cation-adjusted) was inoculated with 5 μL of frozen bacterial stock and incubated at 37° C. on a shaker platform (at 250 rpm) overnight. Compound stock solutions were prepared in DMSO and serial two-fold dilutions of compound were made in 0.01% acetic acid, 0.2% bovine serum albumin directly in the wells of the polypropylene plate at 10 μL/well. […] All samples were performed in duplicate. The overnight bacteria suspension was diluted to approximately 10^6 cfu/mL and inoculated into a polypropylene (Costar) 96-well round bottom plate (90 μL volumes). One set of control wells included broth-only samples with dilution buffer for testing sterility and providing blank values for the assay readings. Vehicle-control wells containing the bacterial suspension with DMSO (no compound) were also included. Following the overnight incubation (18 hours), cell growth was assessed by observing the presence of “acceptable growth”, defined by NCCLS as a ≧2 mm button or definite turbidity.
(§4) Actual results from a representative MIC assay are shown below in Table 1. Data is expressed as MIC50 in μg/mL. The bacterial isolates were as follows: E. coli (25922); S. aureus (27660); E. faecalis (29212); P. aeruginosa (10145); and K. pneumoniae (13883).

[3] = system: Pseudomonas aeruginosa ATCC 10145; test: as above; settings: read-out: MIC (expressed as MIC50) P. Aeruginosa
Experimental: as §1, §2, §3, §4

E. Coli ATCC 25922 = test: as above; settings: Escherichia coli, read-out: MIC (expressed as MIC50) E. coli
Experimental: as §1, §2, §3, §4

[4] = system: Staphylococcus aureus ATCC 27660; test: as above; settings: read-out: MIC (expressed as MIC50) S. aureus
Experimental: as §1, §2, §3, §4

[5] = system: Enterococcus faecalis ATCC 29212; test: as above; settings: read-out: MIC (expressed as MIC50) E. faecalis
Experimental: as §1, §2, §3, §4

[6] = mouse, NIH/3T3 cells (CRL-1658)
[7] = ATCC13883, K. pneumoniae (13883), 18 hours incubation
[8] = ATCC10145, P. aeruginosa (10145), 18 hours incubation
[9] = ATCC25922, E. coli (25922), 18 hours incubation
[10] = ATCC27660, S. aureus (27660), 18 hours incubation
[11] = ATCC29212, E. faecalis (29212), 18 hours incubation

| SMILES | EC50 at 1 h ([1]; human, HepG2 cells (HB-8065)) [µg/mL] | EC50 at 1 h [1, 6] [µg/mL] | MIC50 [2, 7] [µg/mL] | MIC50 [3, 8] [µg/mL] | MIC50 (E. Coli ATCC 25922; [9]) [µg/mL] | MIC50 [4, 10] [µg/mL] | MIC50 [5, 11] [µg/mL] | MIC50 ([2]; ATCC13883, 18 h) [µg/mL] | MIC50 ([3]; ATCC10145, 18 h) [µg/mL] | MIC50 (E. Coli ATCC 25922; ATCC25922, 18 h) [µg/mL] | MIC50 ([4]; ATCC27660, 18 h) [µg/mL] | MIC50 ([5]; ATCC29212, 18 h) [µg/mL] |
| --- | --- | --- | --- | --- | --- | --- | --- | --- | --- | --- | --- | --- |
| N=C(N)NCCCCC(=O)Nc1cc(C(F)(F)F)cc(NC(=O)Nc2ccc(Oc3cc([N+](=O)[O-])cc(C(F)(F)F)c3)cc2)c1SCCN [Compound 100, (4-(2-(2-aminoethylthio)-3-(3-(4-(3-(trifluoromethyl)-5-nitrophenoxy)phenyl)ureido)-5-(trifluoromethyl)phenylcarbamoyl)butyl)guanidine] | 396 (≈ 553 µM) | 56.2 (≈ 78.4 µM) | 50 (≈ 69.8 µM) | 50 (≈ 69.8 µM) | 50 (≈ 69.8 µM) | 25 (≈ 34.9 µM) | 50 (≈ 69.8 µM) |  |  |  |  |  |
| N=C(N)NCCCCC(=O)Nc1cc(C(F)(F)F)cc(NC(=O)Nc2ccc(Oc3cc([N+](=O)[O-])cc(C(F)(F)F)c3)cc2)c1O[C@@H]1CCNC1 [Compound 101, [3-[4-[[3-(5-guanidinopentanoylamino)-2-[(3R)-pyrrolidin-3-yl]oxy-5-(trifluoromethyl)phenyl]carbamoylamino]phenoxy]-5-(trifluoromethyl)phenyl]azinic acid] | > 1000 | > 1000 |  |  |  |  |  | 100 (≈ 138 µM) | > 100 | > 100 | 50 (≈ 68.8 µM) | 100 (≈ 138 µM) |
| N=C(N)NCCCCC(=O)Nc1cc(C(F)(F)F)cc(NC(=O)Nc2ccc(Oc3cc(N)cc(C(F)(F)F)c3)cc2)c1SCCN [Compound 102, (4-(2-(2-aminoethylthio)-3-(3-(4-(3-amino-5-(trifluoromethyl)phenoxy)phenyl)ureido)-5-(trifluoromethyl)phenylcarbamoyl)butyl) guanidine] | 68 (≈ 99 µM) | 36.7 (≈ 53.4 µM) | 6.25 (≈ 9.1 µM) | 12.5 (≈ 18.2 µM) | 3.13 (≈ 4.56 µM) | 0.78 (≈ 1.14 µM) | 6.25 (≈ 9.1 µM) |  |  |  |  |  |
| N=C(N)NCCCCC(=O)Nc1cc(C(F)(F)F)cc(NC(=O)Nc2ccc(Oc3cc(N)cc(C(F)(F)F)c3)cc2)c1O[C@@H]1CCNC1 [Compound 103, (4-(2-((R)-pyrrolidin-3-yloxy)-3-(3-(4-(3-amino-5-(trifluoromethyl)phenoxy)phenyl)ureido)-5-(trifluoromethyl)phenylcarbamoyl)butyl)guanidine] |  |  | 12.5 (≈ 17.9 µM) | 12.5 (≈ 17.9 µM) | 3.13 (≈ 4.49 µM) | 0.78 (≈ 1.12 µM) | 12.5 (≈ 17.9 µM) |  |  |  |  |  |
| N=C(N)NCCCCC(=O)Nc1cc(C(F)(F)F)cc(NC(=O)Nc2ccc(Oc3cc(NCCN)cc(C(F)(F)F)c3)cc2)c1O[C@@H]1CCNC1 [Compound 104] | 148 (≈ 200 µM) | 82.7 (≈ 112 µM) | 3.13 (≈ 4.23 µM) | 6.25 (≈ 8.45 µM) | 3.13 (≈ 4.23 µM) | 0.049 (≈ 0.0662 µM) | 3.13 (≈ 4.23 µM) |  |  |  |  |  |
| N=C(N)NCCCCC(=O)Nc1cc(C(F)(F)F)cc(NC(=O)Nc2ccc(Oc3cc(NCCCN)cc(C(F)(F)F)c3)cc2)c1SCCN [Compound 105, (4-(2-(2-aminoethylthio)-3-(3-(4-(3-(3-aminopropylamino)-5-(trifluoromethyl)phenoxy)phenyl)ureido)-5-(trifluoromethyl)phenylcarbamoyl)butyl)guanidine] | 40 (≈ 53.8 µM) | 49.4 (≈ 66.4 µM) | 1.56 (≈ 2.1 µM) | 3.13 (≈ 4.21 µM) | 1.56 (≈ 2.1 µM) | 0.195 (≈ 0.262 µM) | 0.78 (≈ 1.05 µM) |  |  |  |  |  |
| N=C(N)NCCCCC(=O)Nc1cc(C(F)(F)F)cc(NC(=O)Nc2ccc(Oc3cc(NCCN)cc(C(F)(F)F)c3)cc2)c1SCCN [Compound 106, (4-(2-(2-aminoethylthio)-3-(3-(4-(3-(2-aminoethylamino)-5-(trifluoromethyl)phenoxy)phenyl)ureido)-5-(trifluoromethyl)phenylcarbamoyl)butyl) guanidine] | 61.8 (≈ 84.7 µM) | 52.6 (≈ 72.1 µM) | 1.56 (≈ 2.14 µM) | 3.13 (≈ 4.29 µM) | 0.78 (≈ 1.07 µM) | 0.195 (≈ 0.267 µM) | 1.56 (≈ 2.14 µM) |  |  |  |  |  |
| N=C(N)NCCCCC(=O)Nc1cc(C(F)(F)F)cc(NC(=O)Nc2cccc(Oc3cc(NC(=N)N)cc(C(F)(F)F)c3)c2)c1SCCN [Compound 107, N-[2-(2-aminoethylsulfanyl)-3-[[3-[3-guanidino-5-(trifluoromethyl)phenoxy]phenyl]carbamoylamino]-5-(trifluoromethyl)phenyl]-5-guanidino-pentanamide] |  |  | 12.5 (≈ 17.2 µM) | 6.25 (≈ 8.58 µM) | 3.13 (≈ 4.3 µM) | 0.39 (≈ 0.535 µM) | 12.5 (≈ 17.2 µM) |  |  |  |  |  |
| N=C(N)NCCCCC(=O)Nc1cc(C(F)(F)F)cc(NC(=O)Nc2ccc(Oc3ccc(NCCN)c(C(F)(F)F)c3)c(CCCN)c2)c1SCCN [Compound 108, N-[3-[[4-[4-(2-aminoethylamino)-3-(trifluoromethyl)phenoxy]-3-(3-aminopropyl)phenyl]carbamoylamino]-2-(2-aminoethylsulfanyl)-5-(trifluoromethyl)phenyl]-5-guanidino-pentanamide] | 395 (≈ 502 µM) | 186 (≈ 236 µM) | 3.13 (≈ 3.98 µM) | 6.25 (≈ 7.94 µM) | 3.13 (≈ 3.98 µM) | 3.13 (≈ 3.98 µM) | 1.56 (≈ 1.98 µM) |  |  |  |  |  |
| N=C(N)NCCCCC(=O)Nc1cc(C(F)(F)F)cc(NC(=O)Nc2ccc(Oc3ccc(NCCN)c(C(F)(F)F)c3)c(CCCN)c2)c1O[C@@H]1CCNC1 [Compound 109, N-[3-[[4-[4-(2-aminoethylamino)-3-(trifluoromethyl)phenoxy]-3-(3-aminopropyl)phenyl]carbamoylamino]-2-[(3R)-pyrrolidin-3-yl]oxy-5-(trifluoromethyl)phenyl]-5-guanidino-pentanamide] | 409 (≈ 513 µM) | 256 (≈ 321 µM) | 6.25 (≈ 7.84 µM) | 12.5 (≈ 15.7 µM) | 6.25 (≈ 7.84 µM) | 3.13 (≈ 3.93 µM) | 1.56 (≈ 1.96 µM) |  |  |  |  |  |
| N=C(N)NCCCCC(=O)Nc1cc(C(F)(F)F)cc(NC(=O)Nc2cccc(Oc3cc(NC(=N)N)cc(C(F)(F)F)c3)c2)c1O[C@@H]1CCNC1 [Compound 116, 5-guanidino-N-[3-[[3-[3-guanidino-5-(trifluoromethyl)phenoxy]phenyl]carbamoylamino]-2-[(3R)-pyrrolidin-3-yl]oxy-5-(trifluoromethyl)phenyl]pentanamide] |  |  | 12.5 (≈ 16.9 µM) | 6.25 (≈ 8.46 µM) | 3.13 (≈ 4.24 µM) | 0.39 (≈ 0.528 µM) | 12.5 (≈ 16.9 µM) |  |  |  |  |  |
| N=C(N)NCCCCC(=O)Nc1cc(C(F)(F)F)cc(NC(=O)Nc2cccc(Oc3cc(NCCCN)cc(C(F)(F)F)c3)c2)c1SCCN [Compound 117] |  |  | 3.13 (≈ 4.21 µM) | 6.25 (≈ 8.4 µM) | 1.56 (≈ 2.1 µM) | 0.39 (≈ 0.524 µM) | 3.13 (≈ 4.21 µM) |  |  |  |  |  |
| N=C(N)NCCCCC(=O)Nc1cc(C(F)(F)F)cc(NC(=O)Nc2cccc(Oc3cc(NCCCN)cc(C(F)(F)F)c3)c2)c1O[C@@H]1CCNC1 [Compound 118, N-[3-[[3-[3-(3-aminopropylamino)-5-(trifluoromethyl)phenoxy]phenyl]carbamoylamino]-2-[(3R)-pyrrolidin-3-yl]oxy-5-(trifluoromethyl)phenyl]-5-guanidino-pentanamide] |  |  | 3.13 (≈ 4.15 µM) | 6.25 (≈ 8.29 µM) | 3.13 (≈ 4.15 µM) | 0.195 (≈ 0.259 µM) | 3.13 (≈ 4.15 µM) |  |  |  |  |  |
